Here are results for one compound from patent US20020072499A1, “Treatment with small peptides to effect antifibrotic activity” (Histatek, Inc., priority 1999, published 2002).

The test system of one series is BALB/c mice. The note with it: mouse, in vivo.
Series [1] deals with murine model of allergen-induced chronic asthma subjected to repeated allergic challenge (Balb/C mice). The following applies: mouse, in vivo. The procedure: This example reports the results of tests wherein mice having induced chronic asthma and having been treated in accord with the present invention are subsequently further challenged intranasally (“IN”) with OVA. Materials were the same as in Example 1. Balb/C mice were repeatedly immunized with OVA over a six month period as in Example 1. Thereafter, the mice were treated with 50 μg of HKX per dose intranasally for eight doses over a 16 day period, as in example 1. Then, a further regimen administered a 50 μg dose of HK-X 15-30 minutes prior to intranasal OVA challenge. This regimen was repeated for a total of three days. On the day after the last treatment the mice were sacrificed. HK-X was prepared in the same manner as in Example 1. […] The trachea and left lung (upper and lower lobes) were collected and fixed in 10% formalin at 20° C. for 15 hr. After embedding in paraffin, the tissues were cut into 5 μm sections. Eosinophils were stained in the lung tissue with Modified Discombe's Solution. […] Occlusion of the airway diameter by mucus was assessed on a semiquantitative scale ranging from 0 to 5+. For each mouse, individuals blinded to the protocol design assessed 10 airway sections randomly distributed throughout the left lung for mucus occlusion by morphometric analysis. […]

Series [2] concerns murine model of allergen-induced chronic asthma (OVA immunized BALB/c mice). The note with it: mouse, in vivo.
Excerpt: The chronic murine model of asthma was used to test the effects of f-Met-Leu-Phe-Phe (HK-X) on persistent asthma. This murine system is a model of chronic asthma where there is enormous infiltration of inflammatory cells in association with outer boundaries of the airway basal lamina. An immunization period of five (5) months during which mice were subjected to an initial immunization procedure during the first month followed by weekly intranasal challenges with OVA established a condition of persistent asthma in the mice. […] Immunized mice were treated with HK-X eight times over a sixteen day period (i.e., every other day). […]
Airway Plug scores—by using a scoring system from + to ++++, the severity of mucus secretion into medium and large-sized airways could be measured according to the previous report (Henderson et al., J. Exp. Medicine, vol. 1-84, pp. 1483-94, Oct. 1996).
Fraction of Epithelial Cells Containing Mucous Granules—was evaluated by randomly counting the number of epithelial cells containing mucus out of 100 epithelial cells in medium to large airways (600 μm to 1,000 μm diameters). A total of 10 fields were counted in different lung lobes and the mean score was tabulated. […]
Numbers of various cell types—eosinophils and neutrophils were quantified by counting the numbers per high power field (40×) in an area of 2,200 u^2 in association with airways. […]
A further series in a line: in vivo. The note with it: mouse.

Peptide text beside a SMILES is read from it. * marks the point of attachment. For = O=C*

Description for in vivo: The HK-X/OVA group of animals received HK-X dosage of 0.4 mg/Kg body weight (50 ug per 20 gm body weight per day) while the saline group received the same dosage of HK-X without OVA. […] Therefore, to maintain the plasma levels during the course of the allergen challenge, these mice received additional HK-X doses intranasally immediately before OVA challenge.

For the compound `CSCC[C@H](NC=O)C(=O)N[C@@H](CC(C)C)C(=O)N[C@@H](Cc1ccccc1)C(=O)N[C@@H](Cc1ccccc1)C(=O)O` [HK-X, f-Met-Leu-Phe-Phe] (For-MLFF-OH; C-terminus assumed), in the series with BALB/c mice, the “adverse reactions or signs of sickness” value was “No adverse reactions or signs of sickness were observed”. The “number of eosinophils in the lung tissues” value in series [1] was 0.75±0.18 cells per 2,200 μm^2. Besides, the “pulmonary tissue of control mice administered HK-X in saline” value in series [1] was “free of inflammatory cells and fibrotic collagen deposits”; in series [2] it was “free of inflammatory cells and fibrotic collagen deposits”. The compound further displayed a half-life in “in vivo” below 30 min.
